EP2951180B1, “2,6,7,8 SUBSTITUTED PURINES AS HDM2 INHIBITORS” (Merck Sharp & Dohme Corp., priority 2013, dated 2014)

Target: T1, HDM2 (Homo sapiens, UniProt Q00987)
T1 construct: Thioredoxin (N); made in house; host or cells: E. coli strain BL21(DE3)Rosetta
Assay: HDM2 FRET assay (inhibition of binding of FITC labeled p53-pocket peptide to HDM2)
Conditions: 0.5 nM HDM2 (residues 17 to 125), 3nM peptide, two hour incubation at room temperature; read-out: FRET IC50
Outline: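 Final: 0.5 nM His-HDM2, 3 nM FITC peptide, 0.25 nM Tb anti-His Ab; PBS, 0.01% BSA, 0.01% Tween-20; 0.1% DMSO.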

T1 sequence (Q00987 17-125): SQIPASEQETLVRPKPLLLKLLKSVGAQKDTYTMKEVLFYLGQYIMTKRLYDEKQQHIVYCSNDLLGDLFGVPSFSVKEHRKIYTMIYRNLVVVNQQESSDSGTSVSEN

| Structure (SMILES) | IC50 |
| --- | --- |
| CC(=O)c1nc(N[C@H](C)C2CCC2)c2c(n1)nc(N1CCOC[C@H]1c1ccccc1)n2C[C@H]1CC[C@H](C)CC1 [Example 12.23, 1-(6-{[(1R)-1-cyclobutylethyl]amino}-7-[(trans-4-methylcyclohexyl)methyl]-8-[(3R)-3-phenylmorpholin-4-yl]-7H-purin-2-yl)ethanone] | 53.3 nM |
| C[C@@H](Nc1nc(C(=O)NS(=O)(=O)N(C)C)nc2nc(N3CCOC[C@H]3c3ccccc3)n(C[C@H]3CC[C@H](C)CC3)c12)C1CCC1 [Example 12.24, 6-{[(1R)-1-cyclobutylethyl]amino}-N-(dimethylsulfamoyl)-7-[(trans-4-methylcyclohexyl)methyl]-8-[(3R)-3-phenylmorpholin-4-yl]-7H-purine-2-carboxamide] | 1.41 nM |
| Cc1cccc(-c2nc3nc(C(=O)NS(C)(=O)=O)nc(N[C@H](C)C4CC4)c3n2Cc2ccc(C(F)(F)F)cc2)c1 [Example 12.25, 6-{[(1R)-1-cyclopropylethyl]amino}-8-(3-methylphenyl)-N-(methylsulfonyl)-7-[4-(trifluoromethyl)benzyl]-7H-purine-2-carboxamide] | 1070 nM |
| Cc1cccc(-c2nc3nc(-c4nnn[nH]4)nc(N[C@H](C)C4CC4)c3n2Cc2ccc(C(F)(F)F)cc2)c1 [Example 12.26, N-[(1R)-1-cyclopropylethyl]-8-(3-methylphenyl)-2-(1H-tetrazol-5-yl)-7-[4-(trifluoromethyl)benzyl]-7H-purin-6-amine] | 53 nM |
| Cc1cccc(-c2nc3nc(C(N)=O)nc(N[C@H](C)C4CC4)c3n2Cc2ccc(C(F)(F)F)cc2)c1 [Example 12.27, 6-{[(1R)-1-cyclopropylethyl]amino}-8-(3-methylphenyl)-7-[4-(trifluoromethyl)benzyl]-7H-purine-2-carboxamide] | 2040 nM |
| Cc1cccc(-c2nc3nc(-c4nc[nH]n4)nc(N[C@H](C)C4CC4)c3n2Cc2ccc(C(F)(F)F)cc2)c1 [Example 12.28, N-[(1R)-1-cyclopropylethyl]-8-(3-methylphenyl)-2-(1H-1,2,4-triazol-3-yl)-7-[4-(trifluoromethyl)benzyl]-7H-purin-6-amine] | 314 nM |
| Cc1cccc(-c2nc3nc(C(N)=O)nc(N[C@H](C)C4CCC4)c3n2Cc2ccc(C(F)(F)F)cc2)c1 [Example 12.29, 6-{[(1R)-1-cyclobutylethyl]amino} -8-(3-methylphenyl)-7-[4-(trifluoromethyl)benzyl]-7H-purine-2-carboxamide] | 1410 nM |
| CNC(=O)c1nc(N[C@H](C)C2CCC2)c2c(n1)nc(-c1cccc(C)c1)n2Cc1ccc(C(F)(F)F)cc1 [Example 12.30, 6-{[(1R)-1-cyclobutylethyl]amino}-N-methyl-8-(3-methylphenyl)-7-[4-(trifluoromethyl)benzyl]-7H-purine-2-carboxamide] | 873 nM |
| CONC(=O)c1nc(N[C@H](C)C2CCC2)c2c(n1)nc(-c1cc(C(C)C)ccn1)n2Cc1ccc(C(F)(F)F)cc1 [Example 12.32, 6-{[(1R)-1-cyclobutylethyl]amino}-N-methoxy-8-[4-(1-methylethyl)pyridin-2-yl]-7-[4-(trifluoromethyl)benzyl]-7H-purine-2-carboxamide] | 42.5 nM |
| C[C@@H](Nc1nc(CO)nc2nc(N3CCOC[C@H]3c3ccccc3)n(Cc3ccc(C(F)(F)F)cc3)c12)C1CCC1 [Example 12.33, (6-{[(1R)-1-cyclobutylethyl]amino}-8-[(3R)-3-phenylmorpholin-4-yl]-7-[4-(trifluoromethyl)benzyl]-7H-purin-2-yl)methanol] | 151 nM |
| CC(C)c1ccnc(-c2nc3nc(CO)nc(N[C@H](C)C4CCC4)c3n2C[C@H]2CC[C@H](C)CC2)c1 [Example 12.34, (6-{[(1R)-1-cyclobutylethyl]amino}-7-[(trans-4-methylcyclohexyl)methyl]-8-[4-(1-methylethyl)pyridin-2-yl]-7H-purin-2-yl)methanol] | 301 nM |
| C[C@@H](Nc1nc(NCCO)nc2nc(N3CCOC[C@H]3c3ccccc3)n(C[C@H]3CC[C@H](C)CC3)c12)C1CCC1 [Example 13.1, 2-((6-(((R)-1-cyclobutylethyl)amino)-7-((trans-4-methylcyclohexyl)methyl)-8-((R)-3-phenylmorpholino)-7H-purin-2-yl)amino)ethanol] | 885 nM |
| C[C@@H](Nc1nc(N2CCC[C@H]2C(=O)O)nc2nc(N3CCOC[C@H]3c3ccccc3)n(C[C@H]3CC[C@H](C)CC3)c12)C1CCC1 [Example 13.2, 1-(6-{[(1R)-1-cyclobutylethyl]amino}-7-[(trans-4-methylcyclohexyl)methyl]-8-[(3R)-3-phenylmorpholin-4-yl]-7H-purin-2-yl)-L-proline] | 987 nM |
| C[C@@H](Nc1nc(N2CCC[C@@H]2C(=O)O)nc2nc(N3CCOC[C@H]3c3ccccc3)n(C[C@H]3CC[C@H](C)CC3)c12)C1CCC1 [Example 13.4, 1-(6-{[(1R)-1-cyclobutylethyl]amino}-7-[(trans-4-methylcyclohexyl)methyl]-8-[(3R)-3-phenylmorpholin-4-yl]-7H-purin-2-yl)-D-proline] | 96.1 nM |
| C[C@@H](Nc1nc(NC(C)(C)C(=O)O)nc2nc(N3CCOC[C@H]3c3ccccc3)n(C[C@H]3CC[C@H](C)CC3)c12)C1CCC1 [Example 13.5, N-(6-{[(1R)-1-cyclobutylethyl]amino}-7-[(trans-4-methylcyclohexyl)methyl]-8-[(3R)-3-phenylmorpholin-4-yl]-7H-purin-2-yl)-2-methylalanine] | 260 nM |
| C[C@@H](Nc1nc(NCC(=O)O)nc2nc(N3CCOC[C@H]3c3ccccc3)n(C[C@H]3CC[C@H](C)CC3)c12)C1CCC1 [Example 13.6, N-(6-{[(1R)-1-cyclobutylethyl]amino}-7-[(trans-4-methylcyclohexyl)methyl]-8-[(3R)-3-phenylmorpholin-4-yl]-7H-purin-2-yl)glycine] | 146 nM |
| C[C@@H](Nc1nc(N2CCC[C@]2(C)C(=O)O)nc2nc(N3CCOC[C@H]3c3ccccc3)n(C[C@H]3CC[C@H](C)CC3)c12)C1CCC1 [Example 13.7, 1-(6-{[(1R)-1-cyclobutylethyl]amino}-7-[(trans-4-methylcyclohexyl)methyl]-8-[(3R)-3-phenylmorpholin-4-yl]-7H-purin-2-yl)-2-methyl-D-proline] | 224 nM |
| C[C@@H](Nc1nc(N(C)CC(=O)O)nc2nc(N3CCOC[C@H]3c3ccccc3)n(C[C@H]3CC[C@H](C)CC3)c12)C1CCC1 [Example 13.8, N-(6-{[(1R)-1-cyclobutylethyl]amino}-7-[(trans-4-methylcyclohexyl)methyl]-8-[(3R)-3-phenylmorpholin-4-yl]-7H-purin-2-yl)-N-methylglycine] | 120 nM |
| C[C@@H](Nc1nc(N2CCC(C(=O)O)C2)nc2nc(N3CCOC[C@H]3c3ccccc3)n(C[C@H]3CC[C@H](C)CC3)c12)C1CCC1 (stereo partly drawn) [Example 13.9, 1-(6-{[(1R)-1-cyclobutylethyl]amino}-7-[(trans-4-methylcyclohexyl)methyl]-8-[(3R)-3-phenylmorpholin-4-yl]-7H-purin-2-yl)pyrrolidine-3-carboxylic acid] | 199 nM |
| CSC1(C(=O)O)CCN(c2nc(N[C@H](C)C3CCC3)c3c(n2)nc(N2CCOC[C@H]2c2ccccc2)n3C[C@H]2CC[C@H](C)CC2)C1 (stereo partly drawn) [Example 13.10, 1-(6-{[(1R)-1-cyclobutylethyl]amino}-7-[(trans-4-methylcyclohexyl)methyl]-8-[(3R)-3-phenylmorpholin-4-yl]-7H-purin-2-yl)-3-(methylsulfanyl)pyrrol idine-3-carboxylic acid] | 248 nM |
| C[C@@H](Nc1nc(N2CC(C(=O)O)C(C)(C)C2)nc2nc(N3CCOC[C@H]3c3ccccc3)n(C[C@H]3CC[C@H](C)CC3)c12)C1CCC1 (stereo partly drawn) [Example 13.11, 1-(6-{[(1R)-1-cyclobutylethyl]amino}-7-[(trans-4-methylcyclohexyl)methyl]-8-[(3R)-3-phenylmorpholin-4-yl]-7H-purin-2-yl)-4,4-dimethylpyrrolidine-3 - carboxylic acid] | 95.9 nM |
| C[C@@H](Nc1nc(S(C)(=O)=O)nc2nc(N3CCOC[C@H]3c3ccccc3)n(C[C@H]3CC[C@H](C)CC3)c12)C1CCC1 [Example 14.1, N-((R)-1-cyclobutylethyl)-7-((trans-4-methylcyclohexyl)methyl)-2-(methylsulfonyl)-8-((R)-3-phenylmorpholino)-7H-purin-6-amine] | 23.5 nM |
| CC(C)c1ccnc(-c2nc3nc(S(C)(=O)=O)nc(N[C@H](C)C4CCC4)c3n2C[C@H]2CC[C@H](C)CC2)c1 [Example 14.4, N-[(1R)-1-cyclobutylethyl]-7-[(trans-4-methylcyclohexyl)methyl]-8-[4-(1-methylethyl)pyridin-2-yl]-2-(methylsulfonyl)-7H-purin-6-amine] | 72.4 nM |
| CCS(=O)(=O)c1nc(N[C@H](C)C2CCC2)c2c(n1)nc(N1CCOC[C@H]1c1ccccc1)n2C[C@H]1CC[C@H](C)CC1 [Example 14.5, N-[(1R)-1-cyclobutylethyl]-2-(ethylsulfonyl)-7-[(trans-4-methylcyclohexyl)methyl]-8-[(3R)-3-phenylmorpholin-4-yl]-7H-purin-6-amine] | 20.1 nM |
| CC(C)S(=O)(=O)c1nc(N[C@H](C)C2CCC2)c2c(n1)nc(N1CCOC[C@H]1c1ccccc1)n2C[C@H]1CC[C@H](C)CC1 [Example 14.6, N-[(1R)-1-cyclobutylethyl]-7-[(trans-4-methylcyclohexyl)methyl]-2-[(1-methylethyl)sulfonyl]-8-[(3R)-3-phenylmorpholin-4-yl]-7H-purin-6-amine] | 21.1 nM |

Same assay, conditions: read-out: % inh. at 1000 nM; at 1000 nM compound

| Structure (SMILES) | inhibition at 1 µM |
| --- | --- |
| CNc1nc(N[C@H](C)C2CCC2)c2c(n1)nc(N1CCOC[C@H]1c1ccccc1)n2C[C@H]1CC[C@H](C)CC1 [Example 13.3, N^6-[(1R)-1-cyclobutylethyl]-N^2-methyl-7-[(trans-4-methylcyclohexyl)methyl]-8-[(3R)-3-phenylmorpholin-4-yl]-7H-purine-2,6-diamine] | 46% |
